Read-outs that look alike come from different tables or passages of the source.
Assays:
[1] = background, cited from earlier work
[2] = system: indomethacin induced ulcer; assay: antiulcer activity: suppression of indomethacin induced ulcer in mice; type: in vivo, ddY series male mice; conditions: for inhibition in vivo at 100 mg/kg: Mus musculus, po, read-out: Suppression rate of indomethacin induced ulcer
Method: The antiulcer activity of the compounds of this invention was determined by the following method. Four-week-old ddY series male mice were used as the test animals after they were fasted for 24 hours. Each test compound suspended in a 1% gum arabic solution was administerd to the stomach of each mouse at a dose of 100 mg/kg, and then, after 30 minutes, 20 mg/kg of indomethacin was administered orally. Four hours after the administration of indomethacin, the stomach of mouse was extirpated and the length of ulcers was measured. Then, the ulcer index was determined by the total sum of the scores as calculated in Table 1. | TABLE 1 |Length of ulcer | 0.5 mm< 1 mm< 2 mm< 3 mm< |Score 0.5 1 2 3 The mean ulcer index of each group was calculated and the suppression rate against the control group in terms of difference in the mean ulcer index was determined.

reversion test = type: cell-based
[3] = acute toxicity, LD50 (P.O.); conditions: in vivo, po
[4] = 100 mg/kg, p.o., ddY male mice, indomethacin 20 mg/kg orally 30 minutes later, ulcers measured 4 hours after indomethacin

In the case of `CN/C(=N/CCSCc1nc[nH]c1C)NC#N` [Cimetidine], the side effects ([1]; known) is given as “gynecomatism”, the “recurrence of ulcer after suspension of administration” value ([1]; reported) is given as “numbers of cases are reported about recurrence of ulcer” and the inhibition in vivo at 100 mg/kg ([2]; 4 h) is given as 40%.
`O=c1c2ccccc2nc(SCc2ccccn2)n1CCc1ccccc1` [3-Phenethyl-2-(2-pyridylmethylthio)-4(3H)-quinazolinone] showed an inhibition in vivo at 100 mg/kg [2, 4] of 60%.
With `O=c1c2ccccc2nc(SCc2nc3ccccc3[nH]2)n1-c1ccccc1` [2-(2-Benzimidazolylmethylthio)-3-phenyl-4(3H)-quinazolinone] the inhibition in vivo at 100 mg/kg [2, 4] was 81%.
Compound `CCN(CC)CCSc1nc2ccccc2c(=O)n1-c1ccccc1` [2-(2-Diethylaminoethylthio)-3-phenyl-4(3H)-quinazolinone] has an inhibition in vivo at 100 mg/kg [2, 4] of 45%.
With `O=c1c2ccccc2nc(SCc2cccnc2)n1-c1ccccc1` [3-Phenyl-2-(3-pyridylmethylthio)-4(3H)-quinazolinone] the “Suppression rate of indomethacin induced ulcer” value [2, 4] was 63.
With `Cc1ccc2nc(SCc3ccccn3)n(-c3ccccc3)c(=O)c2c1` [6-Methyl-3-phenyl-2-(2-pyridylmethylthio)-4(3H)-quinazolinone] the inhibition in vivo at 100 mg/kg [2, 4] was 38%.
Compound `COc1ccc(-n2c(SCc3nccc(OC)c3C)nc3ccc(C)cc3c2=O)cc1` [2-[(4-Methoxy-3-methylpyridin-2-yl)methylthio]-3-(4-methoxyphenyl)-6-methyl-4(3H)-quinazolinone] has an inhibition in vivo at 100 mg/kg [2, 4] of 49%.
Work on `COc1cc(CSc2nc3ccc(C)cc3c(=O)n2-c2ccccc2)ncc1C` [2[(4-Methoxy-5-methylpyridin-2-yl)methylthio]-6-methyl-3-phenyl-4(3H)-quinazolinone] yielded an inhibition in vivo at 100 mg/kg [2, 4] of 44%.
For `CCn1c(SCc2ccccn2)nc2ccccc2c1=O` [3-Ethyl-2-(2-pyridylmethylthio)-4(3H)-quinazolinone], the reversion test (reversion test) was “negative”, the inhibition in vivo at 100 mg/kg [2, 4] was 96% and the LD50 [3] was over 3000 mg/kg.
